# Laboratory results from article PMC7434893 (British Journal of Cancer, 2020).
# Where “and” joins values, the source holds several entries; their conditions need not be identical. Equal entries are not always repeated. Where two headings read alike, the source gives them in different places.
# Legend:
# AN3 CA = experiment: 8-day growth inhibition; assay type: cell-based; conditions: Endometrial, 8-day assay
compound,measurement,setting,value
O=c1[nH]nc2c3c(cccc13)N=C(CN1Cc3ccccc3C1)N2 [E7449],"Abdominal pain, treatment-related AE",50 mg (n = 3),0%
same,"Anaemia, treatment-related AE",50 mg (n = 3),33.3%
same,"Chromaturia, treatment-related AE",50 mg (n = 3),0%
same,"Constipation, treatment-related AE",50 mg (n = 3),33.3%
same,"Decreased appetite, treatment-related AE",50 mg (n = 3),33.3%
same,"Depression, treatment-related AE",50 mg (n = 3),0%
same,"Diarrhoea, treatment-related AE",50 mg (n = 3),33.3%
same,"Dizziness, treatment-related AE",50 mg (n = 3),0%
same,"Dry skin, treatment-related AE",50 mg (n = 3),0%
same,"Dysgeusia, treatment-related AE",50 mg (n = 3),0%
same,"Erythematous rash, treatment-related AE",50 mg (n = 3),0%
same,"Fatigue, treatment-related AE",50 mg (n = 3),33.3%
same,"Increased blood alkaline phosphatase, treatment-related AE",50 mg (n = 3),0%
same,"Maculopapular rash, treatment-related AE",50 mg (n = 3),0%
same,"Nausea, treatment-related AE",50 mg (n = 3),33.3%
same,"Onycholysis, treatment-related AE",50 mg (n = 3),0%
same,"Periorbital oedema, treatment-related AE",50 mg (n = 3),0%
same,"Photosensitivity reaction, treatment-related AE",50 mg (n = 3),33.3%
same,"Pruritus, treatment-related AE",50 mg (n = 3),0%
same,"Skin hyperpigmentation, treatment-related AE",50 mg (n = 3),0%
same,"Vomiting, treatment-related AE",50 mg (n = 3),33.3%
same,"Patients with dose-limiting toxicity, n (%)","50 mg cohort, 3 evaluable",0 n (%)
same,"Abdominal pain, treatment-related AE",100 mg (n = 3),33.3%
same,"Anaemia, treatment-related AE",100 mg (n = 3),0%
same,"Chromaturia, treatment-related AE",100 mg (n = 3),0%
same,"Constipation, treatment-related AE",100 mg (n = 3),33.3%
same,"Decreased appetite, treatment-related AE",100 mg (n = 3),0%
same,"Depression, treatment-related AE",100 mg (n = 3),33.3%
same,"Diarrhoea, treatment-related AE",100 mg (n = 3),33.3%
same,"Dizziness, treatment-related AE",100 mg (n = 3),0%
same,"Dry skin, treatment-related AE",100 mg (n = 3),33.3%
same,"Dysgeusia, treatment-related AE",100 mg (n = 3),0%
same,"Erythematous rash, treatment-related AE",100 mg (n = 3),0%
same,"Fatigue, treatment-related AE",100 mg (n = 3),66.7%
same,"Increased blood alkaline phosphatase, treatment-related AE",100 mg (n = 3),0%
same,"Maculopapular rash, treatment-related AE",100 mg (n = 3),33.3%
same,"Nausea, treatment-related AE",100 mg (n = 3),33.3%
same,"Onycholysis, treatment-related AE",100 mg (n = 3),0%
same,"Periorbital oedema, treatment-related AE",100 mg (n = 3),0%
same,"Photosensitivity reaction, treatment-related AE",100 mg (n = 3),33.3%
same,"Pruritus, treatment-related AE",100 mg (n = 3),33.3%
same,"Skin hyperpigmentation, treatment-related AE",100 mg (n = 3),33.3%
same,"Vomiting, treatment-related AE",100 mg (n = 3),0%
same,"Patients with dose-limiting toxicity, n (%)","100 mg cohort, 3 evaluable",0 n (%)
same,"Abdominal pain, treatment-related AE",200 mg (n = 4),0%
same,"Anaemia, treatment-related AE",200 mg (n = 4),0%
same,"Chromaturia, treatment-related AE",200 mg (n = 4),0%
same,"Constipation, treatment-related AE",200 mg (n = 4),0%
same,"Decreased appetite, treatment-related AE",200 mg (n = 4),0%
same,"Depression, treatment-related AE",200 mg (n = 4),25.0%
same,"Diarrhoea, treatment-related AE",200 mg (n = 4),0%
same,"Dizziness, treatment-related AE",200 mg (n = 4),0%
same,"Dry skin, treatment-related AE",200 mg (n = 4),0%
same,"Dysgeusia, treatment-related AE",200 mg (n = 4),0%
same,"Erythematous rash, treatment-related AE",200 mg (n = 4),0%
same,"Fatigue, treatment-related AE",200 mg (n = 4),0%
same,"Increased blood alkaline phosphatase, treatment-related AE",200 mg (n = 4),0%
same,"Maculopapular rash, treatment-related AE",200 mg (n = 4),25.0%
same,"Nausea, treatment-related AE",200 mg (n = 4),50.0%
same,"Onycholysis, treatment-related AE",200 mg (n = 4),0%
same,"Periorbital oedema, treatment-related AE",200 mg (n = 4),0%
same,"Photosensitivity reaction, treatment-related AE",200 mg (n = 4),0%
same,"Pruritus, treatment-related AE",200 mg (n = 4),0%
same,"Skin hyperpigmentation, treatment-related AE",200 mg (n = 4),0%
same,"Vomiting, treatment-related AE",200 mg (n = 4),25.0%
same,"Patients with dose-limiting toxicity, n (%)","200 mg cohort, 4 evaluable",0 n (%)
same,"Abdominal pain, treatment-related AE",400 mg (n = 4),25.0%
same,"Anaemia, treatment-related AE",400 mg (n = 4),0%
same,"Chromaturia, treatment-related AE",400 mg (n = 4),50.0%
same,"Constipation, treatment-related AE",400 mg (n = 4),0%
same,"Decreased appetite, treatment-related AE",400 mg (n = 4),25.0%
same,"Depression, treatment-related AE",400 mg (n = 4),50.0%
same,"Diarrhoea, treatment-related AE",400 mg (n = 4),50.0%
same,"Dizziness, treatment-related AE",400 mg (n = 4),0%
same,"Dry skin, treatment-related AE",400 mg (n = 4),0%
same,"Dysgeusia, treatment-related AE",400 mg (n = 4),0%
same,"Erythematous rash, treatment-related AE",400 mg (n = 4),0%
same,"Fatigue, treatment-related AE",400 mg (n = 4),75.0%
same,"Increased blood alkaline phosphatase, treatment-related AE",400 mg (n = 4),25.0%
same,"Maculopapular rash, treatment-related AE",400 mg (n = 4),25.0%
same,"Nausea, treatment-related AE",400 mg (n = 4),25.0%
same,"Onycholysis, treatment-related AE",400 mg (n = 4),25.0%
same,"Periorbital oedema, treatment-related AE",400 mg (n = 4),25.0%
same,"Photosensitivity reaction, treatment-related AE",400 mg (n = 4),25.0%
same,"Pruritus, treatment-related AE",400 mg (n = 4),0%
same,"Skin hyperpigmentation, treatment-related AE",400 mg (n = 4),0%
same,"Vomiting, treatment-related AE",400 mg (n = 4),0%
same,"Patients with dose-limiting toxicity, n (%)","400 mg cohort, 3 evaluable",0 n (%)
same,"Abdominal pain, treatment-related AE",600 mg (n = 21),0%
same,"Anaemia, treatment-related AE",600 mg (n = 21),9.5%
same,"Chromaturia, treatment-related AE",600 mg (n = 21),66.7%
same,"Constipation, treatment-related AE",600 mg (n = 21),9.5%
same,"Decreased appetite, treatment-related AE",600 mg (n = 21),23.8%
same,"Depression, treatment-related AE",600 mg (n = 21),4.8%
same,"Diarrhoea, treatment-related AE",600 mg (n = 21),23.8%
same,"Dizziness, treatment-related AE",600 mg (n = 21),4.8%
same,"Dry skin, treatment-related AE",600 mg (n = 21),4.8%
same,"Dysgeusia, treatment-related AE",600 mg (n = 21),14.3%
same,"Erythematous rash, treatment-related AE",600 mg (n = 21),9.5%
same,"Fatigue, treatment-related AE",600 mg (n = 21),66.7%
same,"Increased blood alkaline phosphatase, treatment-related AE",600 mg (n = 21),14.3%
same,"Maculopapular rash, treatment-related AE",600 mg (n = 21),33.3%
same,"Nausea, treatment-related AE",600 mg (n = 21),33.3%
same,"Onycholysis, treatment-related AE",600 mg (n = 21),9.5%
same,"Periorbital oedema, treatment-related AE",600 mg (n = 21),19.0%
same,"Photosensitivity reaction, treatment-related AE",600 mg (n = 21),23.8%
same,"Pruritus, treatment-related AE",600 mg (n = 21),19.0%
same,"Skin hyperpigmentation, treatment-related AE",600 mg (n = 21),9.5%
same,"Vomiting, treatment-related AE",600 mg (n = 21),14.3%
same,Dose-limiting-toxicity description,600 mg cohort,Grade 3 anaphylactic reaction
same,"Patients with dose-limiting toxicity, n (%)","600 mg cohort, 6 evaluable",1 (16.7) n (%)
same,"Treatment-related grade 3 fatigue, patients","600 mg n = 2, 800 mg n = 2",4
same,"Abdominal pain, treatment-related AE",800 mg (n = 6),16.7%
same,"Anaemia, treatment-related AE",800 mg (n = 6),0%
same,"Chromaturia, treatment-related AE",800 mg (n = 6),66.7%
same,"Constipation, treatment-related AE",800 mg (n = 6),0%
same,"Decreased appetite, treatment-related AE",800 mg (n = 6),50.0%
same,"Depression, treatment-related AE",800 mg (n = 6),16.7%
same,"Diarrhoea, treatment-related AE",800 mg (n = 6),50.0%
same,"Dizziness, treatment-related AE",800 mg (n = 6),33.3%
same,"Dry skin, treatment-related AE",800 mg (n = 6),33.3%
same,"Dysgeusia, treatment-related AE",800 mg (n = 6),0%
same,"Erythematous rash, treatment-related AE",800 mg (n = 6),16.7%
same,"Fatigue, treatment-related AE",800 mg (n = 6),100.0%
same,"Increased blood alkaline phosphatase, treatment-related AE",800 mg (n = 6),0%
same,"Maculopapular rash, treatment-related AE",800 mg (n = 6),16.7%
same,"Nausea, treatment-related AE",800 mg (n = 6),33.3%
same,"Onycholysis, treatment-related AE",800 mg (n = 6),0%
same,"Periorbital oedema, treatment-related AE",800 mg (n = 6),0%
same,"Photosensitivity reaction, treatment-related AE",800 mg (n = 6),33.3%
same,"Pruritus, treatment-related AE",800 mg (n = 6),0%
same,"Skin hyperpigmentation, treatment-related AE",800 mg (n = 6),33.3%
same,"Vomiting, treatment-related AE",800 mg (n = 6),33.3%
same,Dose-limiting-toxicity description,800 mg cohort,Grade 3 fatigue (n = 1) Grade 2 fatigue (n = 3)
same,"Patients with dose-limiting toxicity, n (%)","800 mg cohort, 6 evaluable",4 (66.7) n (%)
same,"Treatment-emergent AEs associated with skin rash events, patients","17/41, doses ≥100 mg",41.5%
same,"Grade 4 AE (hypokalaemia, not treatment-related), patients",200-mg dose cohort,1
same,"Treatment-emergent chromaturia, patients",400-mg dose cohort,50.0%
same,"Treatment-emergent AEs associated with skin rash events, patients",600-mg dose cohort,47.6%
same,"Treatment-emergent chromaturia, patients",600-mg dose cohort,66.7%
same,"Treatment-emergent AEs associated with skin rash events, patients",800-mg dose cohort,66.7%
same,"Treatment-emergent chromaturia, patients",800-mg dose cohort,83.3%
same,"Abdominal pain, treatment-related AE",Total (N = 41),7.3%
same,"Anaemia, treatment-related AE",Total (N = 41),7.3%
same,"Chromaturia, treatment-related AE",Total (N = 41),49% and 48.8%
same,"Constipation, treatment-related AE",Total (N = 41),9.8%
same,"Decreased appetite, treatment-related AE",Total (N = 41),24% and 24.4%
same,"Depression, treatment-related AE",Total (N = 41),14.6%
same,"Diarrhoea, treatment-related AE",Total (N = 41),29% and 29.3%
same,"Dizziness, treatment-related AE",Total (N = 41),7.3%
same,"Dry skin, treatment-related AE",Total (N = 41),9.8%
same,"Dysgeusia, treatment-related AE",Total (N = 41),7.3%
same,"Erythematous rash, treatment-related AE",Total (N = 41),7.3%
same,"Fatigue, treatment-related AE",Total (N = 41),63% and 63.4%
same,"Increased blood alkaline phosphatase, treatment-related AE",Total (N = 41),9.8%
same,"Maculopapular rash, treatment-related AE",Total (N = 41),27% and 26.8%
same,"Nausea, treatment-related AE",Total (N = 41),34% and 34.1%
same,"Onycholysis, treatment-related AE",Total (N = 41),7.3%
same,"Periorbital oedema, treatment-related AE",Total (N = 41),12.2%
same,"Photosensitivity reaction, treatment-related AE",Total (N = 41),24% and 24.4%
same,"Pruritus, treatment-related AE",Total (N = 41),12.2%
same,"Skin hyperpigmentation, treatment-related AE",Total (N = 41),12.2%
same,"Vomiting, treatment-related AE",Total (N = 41),17.1%
same,Grade 5 AEs,all cohorts,No grade 5 AEs
same,"Grade 3 fatigue, patients","all cohorts, 7/41",17.1%
same,"Treatment discontinued due to AEs, patients","all cohorts, 7/41",17%
same,"Treatment-emergent chromaturia, patients","all cohorts, 21/41",51.2%
same,"Nonfatal SAEs, patients","all cohorts, 24/41",58.5%
same,"Grade 3 AEs, patients","all cohorts, 27 of 41 patients",65.9%
same,Patients with treatment-related AEs,"all cohorts, 39 patients",95.1%
same,"Grade 1 thrombocytopenia, patients","at the MTD, 1/21",5%
same,"Anaemia (≤grade 2), patients","at the MTD, 4/21",19%
same,Patients with DLTs,"of the 25 evaluable patients, all dose cohorts",5
same,Recommended phase 2 dose,"oral, once daily",600 mg
same,Maximum-tolerated dose (MTD),"oral, once daily, 28-day cycles",600 mg
same,IC50,AN3 CA,1.49 µM
